# Measurements taken from patent US20090226398A1, “ANTI-VIRAL COMPOUNDS, COMPOSITIONS, AND METHODS OF USE” (Genelabs Technologies, Inc., priority 2008, published 2009).
# System: HCV replication
# Assay: Replicon Assay (Huh-lucubineo-ET cells, luciferase readout)
# Type: cell-based
# Settings: Hepatitis C virus; ET (Huh-lucubineo-ET) HCV replicon cell line; luciferase activity 48-72 hours after compound addition; 6 dilutions
# Procedure: A cell line, ET (Huh-lucubineo-ET) was used for screening of compounds of the present invention for inhibition of HCV replication. The ET cell line was stably transfected with RNA transcripts harboring a I389luc-ubi-neo/NS3-3′/ET; replicon with firefly luciferase-ubiquitin-neomycin phosphotransferase fusion protein and EMCV-IRES driven NS3-5B polyprotein containing the cell culture adaptive mutations (E1202G; T1280I; K1846T) (Krieger at al, 2001 and unpublished). The ET cells were grown in DMEM, supplemented with 10% fetal calf serum, 2 mM Glutamine, Penicillin (100 IU/mL)/Streptomycin (100 μg/mL), 1× nonessential amino acids, and 250 μg/mL G418 (“Geneticin”). They were all available through Life Technologies (Bethesda, Md.). The cells were plated at 0.5−1.0×10^4 cells/well in the 96 well plates and incubated for 24 hrs before adding the test compounds. The compounds were then added to the cells to achieve a final concentration of 5 or 50 μM. Luciferase activity was measured 48-72 hours later by adding a lysis buffer and the substrate (Catalog number Glo-lysis buffer E2661 and Bright-Glo luciferase system E2620 Promega, Madison, Wis.). Cells should not be too confluent during the assay. Percent inhibition of replication was plotted relative to no compound control. For EC50 (effective concentration at which 50% of the maximum inhibition is observed) determinations, 6 dilutions of each compound were used. Compounds were typically diluted 3 fold to span a concentration range of 250 fold. EC50 and similarly TC50 values were calculated by fitting % inhibition at each concentration to the following equation:
# % inhibition=100%/[(EC50/[I])^b+1]
# where b is Hill's coefficient.
row,SMILES,EC50
1,"Cc1ccc(-c2ccc(Cn3cc4nc(-c5cccc(F)c5F)nc-4cn3)c(N)n2)c(C(F)(F)F)c1 [Compound 240, 3-[2-(2,3-Difluoro-phenyl)-imidazo[4,5-d]pyridazin-5-ylmethyl]-6-(4-methyl-2-trifluoromethyl-phenyl)-pyridin-2-ylamine]",44 nM
2,"COc1ccc(-c2ccc(Cn3cc4nc(-c5cccc(F)c5F)nc-4cn3)cc2)c(C(F)(F)F)c1 [Compound 241, 2-(2,3-Difluoro-phenyl)-5-(4′-methoxy-2′-trifluoromethyl-biphenyl-4-ylmethyl)-5H-imidazo[4,5-d]pyridazine]",21 nM
3,"COc1ccc(-c2ccc(Cn3cc4nc(-c5cccc(F)c5F)nc-4cn3)c(N)n2)c(C(F)(F)F)c1 [Compound 242, 3-[2-(2,3-Difluoro-phenyl)-imidazo[4,5-d]pyridazin-5-ylmethyl]-6-(4-methoxy-2-trifluoromethyl-phenyl)-pyridin-2-ylamine]",44 nM
4,"COc1ccc(-c2ccc(Cn3cc4nc(-c5cccc(F)c5F)nc-4cn3)nc2)c(C(F)(F)F)c1 [Compound 243, 2-(2,3-Difluoro-phenyl)-5-[5-(4-methoxy-2-trifluoromethyl-phenyl)-pyridin-2-ylmethyl]-5H-imidazo[4,5-d]pyridazine]",17 nM
5,"Fc1cccc(-c2nc3cnn(Cc4ccc(-c5ccc(C(F)(F)F)cc5C(F)(F)F)cc4)cc-3n2)c1F [Compound 244, 5-(2′,4′-Bis-trifluoromethyl-biphenyl-4-ylmethyl)-2-(2,3-difluoro-phenyl)-5H-imidazo[4,5-d]pyridazine]",9 nM
6,"CCCOc1ccc(-c2ccc(Cn3cc4nc(-c5cccc(F)c5F)nc-4cn3)cn2)cc1 [Compound 245, 2-(2,3-Difluoro-phenyl)-5-[6-(4-propoxy-phenyl)-pyridin-3-ylmethyl]-5H-imidazo[4,5-d]pyridazine]",8350 nM
7,"Fc1cccc(-c2nc3cnn(Cc4ccc(-c5ccc(C(F)(F)F)cc5)cn4)cc-3n2)c1F [Compound 246, 2-(2,3-Difluoro-phenyl)-5-[5-(4-trifluoromethyl-phenyl)-pyridin-2-ylmethyl]-5H-imidazo[4,5-d]pyridazine]",≥ 50000 nM
8,"CCCOc1ccc(-c2ccc(Cn3cc4nc(-c5cccc(F)c5F)nc-4cn3)nc2)cc1 [Compound 247, 2-(2,3-Difluoro-phenyl)-5-[5-(4-propoxy-phenyl)-pyridin-2-ylmethyl]-5H-imidazo[4,5-d]pyridazine]",5080 nM
9,"Fc1cccc(-c2nc3cnn(Cc4ccc(-c5ccc(OC(F)(F)F)cc5)nc4)cc-3n2)c1F [Compound 249, 2-(2,3-Difluoro-phenyl)-5-[6-(4-trifluoromethoxy-phenyl)-pyridin-3-ylmethyl]-5H-imidazo[4,5-d]pyridazine]",≥ 50000 nM
10,"Fc1cccc(-c2nc3cnn(Cc4ccc(-c5ccccc5C(F)(F)F)nc4)cc-3n2)c1F [Compound 250, 2-(2,3-Difluoro-phenyl)-5-[6-(2-trifluoromethyl-phenyl)-pyridin-3-ylmethyl]-5H-imidazo[4,5-d]pyridazine]",≥ 50000 nM
11,"Fc1cc(C(F)(F)F)ccc1-c1ccc(Cn2cc3nc(-c4cccc(F)c4F)nc-3cn2)cn1 [Compound 251, 2-(2,3-Difluoro-phenyl)-5-[6-(2-fluoro-4-trifluoromethyl-phenyl)-pyridin-3-ylmethyl]-5H-imidazo[4,5-d]pyridazine]",≥ 50000 nM
12,"COc1ccc(-c2ccc(Cn3cc4nc(-c5cccc(F)c5F)nc-4cn3)c(-c3ccc(OC)cc3C(F)(F)F)n2)c(C(F)(F)F)c1 [Compound 252, 5-[2,6-Bis-(4-methoxy-2-trifluoromethyl-phenyl)-pyridin-3-ylmethyl]-2-(2,3-difluoro-phenyl)-5H-imidazo[4,5-d]pyridazine]",2640 nM
13,"Fc1cccc(-c2nc3cnn(Cc4ccc(-c5ccc(C(F)(F)F)cc5)nc4)cc-3n2)c1F [Compound 253, 2-(2,3-Difluoro-phenyl)-5-[6-(4-trifluoromethyl-phenyl)-pyridin-3-ylmethyl]-5H-imidazo[4,5-d]pyridazine]",≥ 50000 nM
14,"Fc1cc(C(F)(F)F)ccc1-c1ccc(Cn2cc3nc(-c4cccc(F)c4F)nc-3cn2)nc1 [Compound 254, 2-(2,3-Difluoro-phenyl)-5-[5-(2-fluoro-4-trifluoromethyl-phenyl)-pyridin-2-ylmethyl]-5H-imidazo[4,5-d]pyridazine]",≥ 50000 nM
15,"COc1ccc(-c2ccc(Cn3cc4nc(-c5cccc(F)c5F)nc-4cn3)c(Cl)n2)c(C(F)(F)F)c1 [Compound 255, 5-[2-Chloro-6-(4-methoxy-2-trifluoromethyl-phenyl)-pyridin-3-ylmethyl]-2-(2,3-difluoro-phenyl)-5H-imidazo[4,5-d]pyridazine]",69 nM
16,"Fc1cccc(-c2nc3cnn(Cc4cccc(-c5ccc(C(F)(F)F)cc5C(F)(F)F)c4)cc-3n2)c1F [Compound 256, 5-(2′,4′-Bis-trifluoromethyl-biphenyl-3-ylmethyl)-2-(2,3-difluoro-phenyl)-5H-imidazo[4,5-d]pyridazine]",9790 nM
17,"Fc1cc(-c2ccc(C(F)(F)F)cc2C(F)(F)F)ccc1Cn1cc2nc(-c3cccc(F)c3F)nc-2cn1 [Compound 257, 2-(2,3-Difluoro-phenyl)-5-(3-fluoro-2′,4′-bis-trifluoromethyl-biphenyl-4-ylmethyl)-5H-imidazo[4,5-d]pyridazine]",45 nM
18,"COc1ccc(-c2ccc(Cn3cc4nc(-c5cccc(F)c5F)nc-4cn3)cc2[N+](=O)[O-])c(C(F)(F)F)c1 [Compound 258, 2-(2,3-Difluoro-phenyl)-5-(4′-methoxy-2-nitro-2′-trifluoromethyl-biphenyl-4-ylmethyl)-5H-imidazo[4,5-d]pyridazine]",228 nM
19,"COc1ccc(-c2ccc(Cn3cc4nc(-c5cccc(F)c5F)nc-4cn3)c(F)c2)c(C(F)(F)F)c1 [Compound 259, 2-(2,3-Difluoro-phenyl)-5-(3-fluoro-4′-methoxy-2′-trifluoromethyl-biphenyl-4-ylmethyl)-5H-imidazo[4,5-d]pyridazine]",20 nM
20,"CCCOc1ccc(-c2ccc(Cn3cc4nc(-c5cccc(F)c5F)nc-4cn3)cc2[N+](=O)[O-])cc1 [Compound 260, 2-(2,3-Difluoro-phenyl)-5-(2-nitro-4′-propoxy-biphenyl-4-ylmethyl)-5H-imidazo[4,5-d]pyridazine]",146 nM
21,"COc1ccc(-c2ccc(Cn3cc4nc(-c5cccc(F)c5F)nc-4cn3)cc2F)c(C(F)(F)F)c1 [Compound 261, 2-(2,3-Difluoro-phenyl)-5-(2-fluoro-4′-methoxy-2′-trifluoromethyl-biphenyl-4-ylmethyl)-5H-imidazo[4,5-d]pyridazine]",50 nM
22,"Fc1cccc(-c2nc3cnn(Cc4ccc(Br)cn4)cc-3n2)c1F [Compound 262, 5-(5-bromo-pyridin-2-ylmethyl)-2-(2,3-difluoro-phenyl)-5H-imidazo[4,5-d]pyridazine]",≥ 50000 nM
23,"Fc1cccc(-c2nc3cnn(Cc4ccc(C(F)(F)F)cc4C(F)(F)F)cc-3n2)c1F [Compound 263, 5-(2,4-Bis-trifluoromethyl-benzyl)-2-(2,3-difluoro-phenyl)-5H-imidazo[4,5-d]pyridazine]",≥ 50000 nM
24,"N#Cc1ccccc1-c1ccc(Cn2cc3nc(-c4cccc(F)c4F)nc-3cn2)cc1 [Compound 264, 4′-[2-(2,3-Difluoro-phenyl)-imidazo[4,5-d]pyridazin-5-ylmethyl]-biphenyl-2-carbonitrile]",892 nM
25,"COc1ccc(-c2cnc(Cn3cc4nc(-c5cccc(F)c5F)nc-4cn3)nc2)c(C(F)(F)F)c1 [Compound 265, 2-(2,3-Difluoro-phenyl)-5-[5-(4-methoxy-2-trifluoromethyl-phenyl)-pyrimidin-2-ylmethyl]-5H-imidazo[4,5-d]pyridazine]",228 nM
26,"CCCOc1ccc(-c2cnc(Cn3cc4nc(-c5cccc(F)c5F)nc-4cn3)nc2)c(C(F)(F)F)c1 [Compound 266, 2-(2,3-Difluoro-phenyl)-5-[5-(4-propoxy-2-trifluoromethyl-phenyl)-pyrimidin-2-ylmethyl]-5H-imidazo[4,5-d]pyridazine]",218 nM
27,"Fc1ccccc1-c1nc2cnn(Cc3ccc(-c4ccc(C(F)(F)F)cc4C(F)(F)F)cn3)cc-2n1 [Compound 267, 5-[5-(2,4-Bis-trifluoromethyl-phenyl)-pyridin-2-ylmethyl]-2-(2-fluoro-phenyl)-5H-imidazo[4,5-d]pyridazine]",1300 nM
28,"Cc1nc(-c2ccc(Cn3cc4nc(-c5cccc(F)c5F)nc-4cn3)cc2)cs1 [Compound 268, 2-(2,3-Difluoro-phenyl)-5-[4-(2-methyl-thiazol-4-yl)-benzyl]-5H-imidazo[4,5-d]pyridazine]",≥ 50000 nM
29,"Fc1cccc(-c2nc3cnn(CCCCc4ccc(C(F)(F)F)cc4C(F)(F)F)cc-3n2)c1F [Compound 269, 5-[4-(2,4-Bis-trifluoromethyl-phenyl)-butyl]-2-(2,3-difluoro-phenyl)-5H-imidazo[4,5-d]pyridazine]",25000 nM
30,"Fc1cccc(-c2nc3cnn(CCCc4ccc(C(F)(F)F)cc4C(F)(F)F)cc-3n2)c1F [Compound 270, 5-[3-(2,4-Bis-trifluoromethyl-phenyl)-propyl]-2-(2,3-difluoro-phenyl)-5H-imidazo[4,5-d]pyridazine]",52500 nM
